Reference: US11034715B2, “Ectonucleotidase inhibitors and methods of use thereof” (Calithera Biosciences, Inc., priority 2016, dated 2021)

What was measured:
recombinant CD73 = recombinant CD73 (Homo sapiens (Human), UniProt P21589); experiment: Inhibition of the CD73 enzyme in vitro (soluble recombinant CD73, AMP, Malachite Green); type: biochemical; conditions: recombinant CD73 0.5 nM, AMP 50 μM, 30 minutes at room temperature
Description: The concentration of inorganic phosphate was determined using a phosphate standard curve.

[1] = biological target: endogenous, cell-bound CD73 on SK-MEL-28 cells (Homo sapiens (Human), UniProt P21589); experiment: Inhibition of endogenous, cell-bound CD73 enzyme activity in SK-MEL-28 cells (AMP, Malachite Green); type: cell-based; conditions: 100 μM AMP, 30 minutes at room temperature
Description: The day before the experiment, 5000 cells were plated per well in a 96-well plate. Cells were washed twice with 200 μL reaction buffer (20 mM HEPES, pH 7.4, 125 mM NaCl, 1 mM KCl, 2 mM MgCl2, 10 mM glucose) to remove residual inorganic phosphate. After washing, assays contained serial dilutions of test compounds and 100 μM of AMP in a total volume of 200 μL reaction buffer, with a final DMSO concentration ≤0.5%. After 30 minutes at room temperature, supernatant was removed from the cells. […] The concentration of inorganic phosphate was determined using a phosphate standard curve to determine IC50.

Chain of endogenous, cell-bound CD73 on SK-MEL-28 cells (P21589 27-574): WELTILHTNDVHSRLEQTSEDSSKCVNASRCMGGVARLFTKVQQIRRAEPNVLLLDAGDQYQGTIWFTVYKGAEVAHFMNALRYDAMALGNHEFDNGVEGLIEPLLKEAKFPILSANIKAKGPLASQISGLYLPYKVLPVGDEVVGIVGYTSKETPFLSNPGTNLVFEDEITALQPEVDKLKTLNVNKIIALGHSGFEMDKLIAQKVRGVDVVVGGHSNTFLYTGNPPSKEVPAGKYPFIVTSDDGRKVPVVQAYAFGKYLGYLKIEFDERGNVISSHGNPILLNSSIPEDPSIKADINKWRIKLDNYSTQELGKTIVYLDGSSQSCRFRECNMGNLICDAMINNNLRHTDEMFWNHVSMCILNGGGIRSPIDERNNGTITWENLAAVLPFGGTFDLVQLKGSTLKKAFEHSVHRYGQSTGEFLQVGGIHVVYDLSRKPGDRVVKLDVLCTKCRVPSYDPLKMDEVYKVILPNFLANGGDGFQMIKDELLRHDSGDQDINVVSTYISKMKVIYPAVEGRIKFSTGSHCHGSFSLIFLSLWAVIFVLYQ
Chain of recombinant CD73 (P21589 27-547): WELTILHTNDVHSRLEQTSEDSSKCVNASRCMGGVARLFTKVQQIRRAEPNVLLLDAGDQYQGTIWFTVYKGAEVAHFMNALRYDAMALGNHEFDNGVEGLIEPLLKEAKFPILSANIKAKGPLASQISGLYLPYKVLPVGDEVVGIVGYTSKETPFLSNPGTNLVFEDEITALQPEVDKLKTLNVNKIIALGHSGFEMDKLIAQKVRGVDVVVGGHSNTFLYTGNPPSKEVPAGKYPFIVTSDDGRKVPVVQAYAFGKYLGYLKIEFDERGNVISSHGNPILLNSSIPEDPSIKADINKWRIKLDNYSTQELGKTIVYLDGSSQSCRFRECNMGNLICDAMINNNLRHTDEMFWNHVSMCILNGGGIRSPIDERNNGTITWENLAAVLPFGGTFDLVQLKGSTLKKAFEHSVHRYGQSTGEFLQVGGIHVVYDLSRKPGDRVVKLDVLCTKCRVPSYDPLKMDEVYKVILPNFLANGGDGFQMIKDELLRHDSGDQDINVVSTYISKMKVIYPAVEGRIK

SMILES	IC50 (recombinant CD73) [nM]	IC50 [1] [nM]
CCOC(=O)C(Cc1ccc(OC(F)(F)F)cc1)(OC[C@H]1O[C@@H](n2cnc3c(N)nc(Cl)nc32)[C@@H](F)[C@@H]1O)C(=O)O (single isomer, unassigned) [compound 37]	718	598
Nc1nc(Cl)nc2c1ncn2[C@@H]1O[C@H](COC(Cc2ccccc2)(C(=O)O)C(=O)O)[C@@H](O)[C@H]1N [compound 55, 2-(((2R,3S,4R,5R)-4-amino-5-(6-amino-2-chloro-9H-purin-9-yl)-3-hydroxytetrahydrofuran-2-yl)methoxy)-2-benzylmalonic acid]		> 50000
O=C(O)C(Cc1ccccc1)(OC[C@H]1O[C@@H](n2cnc3c(O)nc(Cl)nc32)[C@@H](F)[C@@H]1O)C(=O)O [compound 74, 2-benzyl-2-(((2R,3R,4S,5R)-5-(2-chloro-6-hydroxy-9H-purin-9-yl)-4-fluoro-3-hydroxytetrahydrofuran-2-yl)methoxy)malonic acid]	1660	2560
Nc1nc(Cl)nc2c1ncn2[C@@H]1O[C@H](COC(Cc2ccc(F)c(F)c2F)(C(=O)O)C(=O)O)[C@@H](O)[C@@H]1F [compound 108]	104	246
O=C(O)C(Cc1ccccc1)(OC[C@H]1O[C@@H](n2cnc3c(SC4CCCC4)nc(Cl)nc32)[C@@H](F)[C@@H]1O)C(=O)O [compound 109]	601	1910
Nc1nc(Cl)nc2c1ncn2[C@@H]1O[C@H](COC(Cc2ccc3c(c2)OC(F)(F)O3)(C(=O)O)C(=O)O)[C@@H](O)[C@@H]1F [compound 110]	66	361
NC(=O)c1ccc(CC(OC[C@H]2O[C@@H](n3cnc4c(N)nc(Cl)nc43)[C@@H](F)[C@@H]2O)(C(=O)O)C(=O)O)cc1 [compound 111]	141	182
Nc1nc(Cl)nc2c1ncn2[C@@H]1O[C@H](COC(Cc2ccc(Cl)c(OC(F)(F)F)c2)(C(=O)O)C(=O)O)[C@@H](O)[C@@H]1F [compound 125]	242	836
Nc1nc(Cl)nc2c1ncn2[C@@H]1O[C@H](COC(Cc2ccccc2F)(C(=O)O)C(=O)O)[C@@H](O)[C@@H]1F [compound 127]	149	408
Nc1nc(Cl)nc2c1ncn2[C@@H]1O[C@H](COC(Cc2ccc(Cl)c(Cl)c2)(C(=O)O)C(=O)O)[C@@H](O)[C@@H]1F [compound 128]	258	827
